In ChEMBL document CHEMBL5137024, “Discovery of novel coumarin-indole derivatives as tubulin polymerization inhibitors with potent anti-gastric cancer activities” (Eur J Med Chem, 2022):

How the values were obtained:
HCT-116 = experiment: cells; details: Homo sapiens, HCT-116, 48 h
KYSE-450 = experiment: Antiproliferative activity against human KYSE-450 cells assessed as reduction in cell viability incubated for 48 hrs by MTT assay; type: functional, cell-based; details: KYSE-450, 48 h
MGC-803 = experiment: Antiproliferative activity against human MGC-803 cells assessed as reduction in cell viability incubated for 48 hrs by MTT assay; type: functional, cell-based; details: Homo sapiens, MGC-803, 48 h

Row | Compound | IC50 (HCT-116) [nM] | IC50 (MGC-803) [nM] | IC50 (KYSE-450) [nM]
1 | COc1ccc2c(c1)c(C=O)cn2-c1cc(=O)oc2ccccc12 | > 20000 | > 20000 | > 20000
2 | Cn1ccc2cc(Nc3cc(=O)oc4ccccc34)ccc21 | 270 | 110 | 310
3 | CN(c1ccc2[nH]ccc2c1)c1cc(=O)oc2ccccc12 | 50 | 14 | 69
4 | CCn1ccc2cc(N(C)c3cc(=O)oc4ccccc34)ccc21 | 27 | 13 | 58
5 | O=C(c1c[nH]c2ccccc12)c1cc(=O)oc2ccccc12 | > 20000 | > 20000 | > 20000
6 | CC(C)(C)OC(=O)n1c(-c2cc(=O)oc3ccccc23)cc2ccccc21 | 3380 | 1180 | 2180
7 | O=c1cc(Nc2ccc3cc[nH]c3c2)c2ccccc2o1 | 7490 | 20 | > 20000
8 | CC(C)(C)OC(=O)n1cc(-c2cc(=O)oc3ccccc23)c2ccccc21 | 180 | 180 | 210
9 | COc1cc2c(c(OC)c1OC)-c1ccc(OC)c(=O)cc1[C@@H](NC(C)=O)CC2 [COLCHICINE] | 108 |  | 122
10 | O=c1cc(-c2ccc3[nH]ccc3c2)c2ccccc2o1 | 240 | 1560 | 2100
11 | O=c1cc(Nc2ccc3c(ccn3Cc3ccccc3)c2)c2ccccc2o1 | 6250 | 210 | > 20000
12 | O=c1cc(Nc2ccc3[nH]ccc3c2)c2ccccc2o1 | 2660 | 260 | 589
13 | CCN(c1ccc2c(ccn2C)c1)c1cc(=O)oc2ccccc12 | 102 | 87 | 128
14 | CCn1ccc2cc(Nc3cc(=O)oc4ccccc34)ccc21 | 3050 | 6040 | > 20000
15 | COc1ccc2[nH]cc(C(=O)c3cc(=O)oc4ccccc34)c2c1 | > 20000 | > 20000 | > 20000
16 | Cc1ccc2[nH]cc(C(=O)c3cc(=O)oc4ccccc34)c2c1 | > 20000 | > 20000 | > 20000

Continued, in another order:

Row | IC50 (HCT-116) [nM] | IC50 (MGC-803) [nM] | Compound | IC50 (KYSE-450) [nM]
17 | > 20000 | > 20000 | O=c1cc(-n2ccc3cc([N+](=O)[O-])ccc32)c2ccccc2o1 | > 20000
18 | 2160 | 1580 | Cn1ccc2ccc(Nc3cc(=O)oc4ccccc34)cc21 | 5460
19 | 980 | 1210 | CCn1ccc2cc(-c3cc(=O)oc4ccccc34)ccc21 | 840
20 | > 20000 | > 20000 | O=c1cc(-n2ccc3ccccc32)c2ccccc2o1 | > 20000
21 | 17400 | 8140 | COc1ccc2c(ccn2-c2cc(=O)oc3ccccc23)c1 | 16100
22 | 11900 | 12900 | O=c1cc(-n2ccc3cc(O)ccc32)c2ccccc2o1 | 17900
23 | 11400 | 18100 | O=Cc1ccc2c(ccn2-c2cc(=O)oc3ccccc23)c1 | 10700
24 | 480 | 650 | O=c1cc(-c2cc3ccccc3[nH]2)c2ccccc2o1 | 710
25 | 514 | 168 | CN(c1ccc2ccn(C)c2c1)c1cc(=O)oc2ccccc12 | 472
